What all share (assay): NCI-60 cell line screen, 48 h
Experiment [1] concerns HOP-62 NSCLC.
The subject of experiment [2] is HOP-92 NSCLC.
The subject of experiment [3] is PC-3 prostate.
Experiment [4] has as its system NCI-H460 lung.
Experiment [5] relates to OVCAR-3 ovarian.
The subject of experiment [6] is SK-MEL-2 melanoma.
For experiment [7], the system named is SN12C renal.
Experiment [8] relates to SK-MEL-5 melanoma.
The test system of experiment [9] is COLO 205 colon.
Experiment [10] deals with SNB-19 CNS.

Several values for one entry are separate records, joined by “and”; a condition that tells them apart may be missing. Equal values may be shown once.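 Following 48 hours of exposure in 96-well plates, responses at five concentrations were used to interpolate endpoints linearly. At the GI50, growth is halved. At the TGI there is no net growth.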 Where only a bound is given, the exact number is not on record here.

With `COc1cc2c(cc1OC)-c1ccc3cc4c(cc3c1N(CCN1CCCC1)C2)OCO4`, the GI50 in [1] was 0.376 µM; in experiment [2], 1.79 µM; in experiment [3], 0.303 µM; in experiment [4] it was 0.289 µM; in [5], 0.854 µM; in [6], 7.61 µM. In addition, the GI50 was 0.345 µM in experiment [7], 1.48 µM in experiment [8], 0.299 µM in experiment [9] and 0.543 µM in experiment [10]. For the same compound, the TGI in experiment [1] was found to be 1.93 µM; in experiment [2] it was 12 µM; in experiment [3] it was 1.85 µM; in [4], 1.17 µM; in experiment [5], 2.23 µM; in [6], 20.1 µM. Moreover, the TGI in experiment [7] amounted to 1.43 µM; in experiment [8], 3.09 µM; in [9] it was 1.56 µM; in experiment [10], 1.85 µM.

`CCN1C(=O)N(CC)C2C1NN=c1s/c(=C3\C(=O)N(C(C)C)c4ccccc43)c(=O)n12` (stereo not given): the GI50 is 0.441 µM in experiment [1]; 0.342 µM in [2]; 0.412 µM in experiment [3]; 0.354 µM in experiment [4]; 0.294 µM in experiment [5]; 1.24 µM in experiment [6]. Moreover, the GI50 is 0.616 µM in experiment [7], 0.394 µM in experiment [8], 0.337 µM in [9] and 0.44 µM in [10]. Also, the TGI in experiment [1] is 42.7 µM; in experiment [2], 6.53 µM; in experiment [3], more than 100 µM; in [4], more than 100 µM; in experiment [5], 0.841 µM; in experiment [6], more than 49.7 µM. The TGI in [7] is more than 100 µM; in experiment [8] it was 2.33 µM; in [9], 1.8 µM; in [10], more than 100 µM.

`O=C(Nc1cccc(Cl)c1)Nc1ncc(CCNc2ncnc3ccsc23)s1`: the GI50 in experiment [1] is 2.37 µM and 1.41 µM; in experiment [2], 0.549 µM and 1.55 µM; in [3], 1.05 µM and 1.92 µM; in [4], 0.114 µM and 0.991 µM; in [5], 4.06 µM and 1.06 µM; in [6], 2.88 µM and 1.76 µM. The GI50 in [7] was 3.91 µM and 3.82 µM; in experiment [8], 1.39 µM and 1.59 µM; in [9] it was < 0.0105 µM and 0.00997 µM; in [10], 11.2 µM and > 10 µM. Moreover, the TGI in [1] is 15.3 µM and > 10 µM; in experiment [2], 10.9 µM and > 10 µM; in experiment [3] it was 13.8 µM and > 10 µM; in experiment [4], more than 72.2 µM; in [5] it was 17.1 µM and > 10 µM; in [6] it was 10.8 µM and 6.26 µM. In addition, the TGI in [7] is 18.6 µM and > 10 µM; in [8] it was 2.83 µM and 4.16 µM; in [9], 8.36 µM and 3.88 µM; in experiment [10] it was 26.9 µM and > 10 µM.

Consider `CCc1ccc(NC(=O)Nc2c[nH]c3ccccc23)cc1`, for which the GI50 in [1] was 16.7 µM; in [2], 12 µM; in [3], 5.13 µM; in experiment [4], 12.7 µM; in [5] it was 2.47 µM; in [6] it was 35.5 µM. The GI50 is 2.22 µM in [7], 32.7 µM in [8], more than 38.9 µM in experiment [9] and 22.7 µM in experiment [10]. In addition, the TGI in experiment [1] was more than 58.8 µM; in [2] it was more than 53.1 µM; in experiment [3], more than 63.7 µM; in experiment [4], more than 49.6 µM; in experiment [5], more than 32.2 µM; in experiment [6], more than 52.1 µM. In addition, the TGI is more than 36.2 µM in experiment [7], more than 54.1 µM in experiment [8], more than 54 µM in [9] and more than 58.3 µM in experiment [10].

As for `CSc1nnc(CCSc2ccnc3c(C(F)(F)F)cccc23)o1`, the GI50 is 51.7 µM in experiment [1]; 18.1 µM in [2]; 88.4 µM in [3]; more than 100 µM in experiment [4]; 91.9 µM in experiment [5]; more than 100 µM in [6]. The GI50 in experiment [7] was more than 100 µM; in experiment [8], 46.1 µM; in experiment [9] it was more than 100 µM; in [10], 61.6 µM. The TGI in experiment [1], in [2], in [3], in [4], in experiment [5] and in [6] was more than 100 µM each time. Further, the TGI in experiment [7], in [8], in experiment [9] and in experiment [10] was more than 100 µM each time.

Consider `O=C(O)CS(=O)(=O)C(c1ccccc1)c1ccccc1`, for which the TGI in [1], in experiment [2], in experiment [3], in [4], in [5] and in experiment [6] was more than 100 µM throughout. Moreover, the TGI in experiment [7], in experiment [8], in [9] and in experiment [10] was more than 100 µM in each case.

As for `c1ccc2nc(Cn3c[n+](Cc4ccc5ccccc5n4)c4ccccc43)ccc2c1`, the GI50 is 2.97 µM in experiment [1]; 0.93 µM in [2]; 2.48 µM in experiment [3]; 2.8 µM in experiment [4]; 1.6 µM in experiment [5]; 2.61 µM in experiment [6]. The GI50 in experiment [7] is 2.19 µM; in experiment [8], 1.45 µM; in experiment [9] it was 1.37 µM; in experiment [10], 2.22 µM. The TGI was 13.7 µM in experiment [1]; 4.3 µM in experiment [2]; 12.2 µM in experiment [3]; 12.3 µM in experiment [4]; 4.99 µM in [5]; 6.87 µM in experiment [6]. Moreover, the TGI turned out to be 10.9 µM in experiment [7], 2.8 µM in experiment [8], 3.22 µM in experiment [9] and 10.4 µM in experiment [10].

In the case of `CCn1c(-c2nonc2N)nc2cncc(C(=O)N3CCNCC3)c21`, the GI50 in experiment [1], in experiment [2], in [3], in experiment [4], in experiment [5] and in [6] was more than 25 µM in each case. Also, the GI50 in [7], in experiment [8], in experiment [9] and in experiment [10] was more than 25 µM throughout. Moreover, the TGI in experiment [1], in experiment [2], in experiment [3], in experiment [4], in experiment [5] and in experiment [6] was more than 25 µM in each case. Moreover, the TGI in experiment [7], in experiment [8], in experiment [9] and in experiment [10] was more than 25 µM each time.

`CCc1c(C)[nH]c(/C=C2\N=C(c3ccc[nH]3)C=C2OC)c1C`: the GI50 is 0.25 µM in experiment [1]; 0.135 µM in experiment [2]; 0.153 µM in experiment [3]; 0.094 µM in [4]; 0.143 µM in experiment [5]; 0.234 µM in [6]. The GI50 in [7] is 0.627 µM; in experiment [8], 0.159 µM; in [9], 0.268 µM; in experiment [10] it was 1.96 µM. The TGI in experiment [1] was 4.04 µM; in experiment [2], 0.682 µM; in experiment [3], 10.8 µM; in [4] it was 10.8 µM; in experiment [5], 3.18 µM; in experiment [6] it was 0.989 µM. Moreover, the TGI in [7] was determined as 15.6 µM; in experiment [8], 0.545 µM; in [9], 1.88 µM; in experiment [10], 15.7 µM.

For the compound `Cc1cc(N2CCCCC2)nc(N(CCNc2ccnc3cc(Cl)ccc23)Cc2ccco2)n1`, the GI50 in experiment [1] was 1.73 µM; in experiment [2] it was 5.73 µM; in experiment [3], 1.69 µM; in experiment [4], 1.76 µM; in experiment [5], 1.74 µM; in [6] it was 2.06 µM. Moreover, the GI50 in [7] was 1.83 µM; in experiment [8], 1.68 µM; in [9], 1.49 µM; in experiment [10], 3.26 µM. Besides, the TGI in [1] is 3.73 µM; in experiment [2] it was 21.7 µM; in experiment [3], 3.72 µM; in experiment [4], 3.34 µM; in experiment [5], 3.14 µM; in [6] it was 4.27 µM. For the same compound, the TGI was determined as 3.56 µM in [7], 3.07 µM in experiment [8], 3.25 µM in experiment [9] and 12 µM in [10].

For the compound `O=c1cc(CNc2cc(F)cc(F)c2)c2ccc(I)cc2[nH]1`, the GI50 in [1] was 1.98 µM; in [2], 1.42 µM; in experiment [3], 0.571 µM; in [4] it was 0.427 µM; in [5] it was 0.336 µM; in experiment [6], 1.44 µM. For the same compound, the GI50 in [7] was 0.798 µM; in experiment [8] it was 0.641 µM; in [9], 0.606 µM; in [10] it was 0.637 µM. In addition, the TGI in experiment [1] was more than 100 µM; in experiment [2], more than 100 µM; in experiment [3], more than 100 µM; in experiment [4], more than 100 µM; in [5], 39.6 µM; in [6], more than 100 µM. The TGI in experiment [7], in experiment [8], in experiment [9] and in experiment [10] was more than 100 µM in each case.

The values are drawn from PubChem BioAssay (NCI).
